Source: paper PMC6273912, “Novel 5-Substituted 2-(Aylmethylthio)-4-chloro-N-(5-aryl-1,2,4-triazin-3-yl)benzenesulfonamides: Synthesis, Molecular Structure, Anticancer Activity, Apoptosis-Inducing Activity and Metabolic Stability” (Molecules, 2016)

Columns and labels:
Format in all cases: cell-based, human
[1] = system: MCF-7 (breast cancer); experiment: MTT cell viability assay, MCF-7; conditions: mean ± SD
Method: (§1) All chemicals, if not stated otherwise, were obtained from Sigma-Aldrich (St. Louis, MO, USA). The MCF-7 cell line was purchased from Cell Lines Services (Eppelheim, Germany), the HeLa and HCT-116 cell lines were obtained from the Department of Microbiology, Tumor and Cell Biology, Karolinska Institute (Stockholm, Sweden). Cells were cultured in Dulbecco’s modified Eagle’s medium (DMEM) supplemented with 10% fetal bovine serum, 2 mM glutamine, 100 units/mL penicillin, and 100 μg/mL streptomycin. Cultures were maintained in a humidified atmosphere with 5% CO2 at 37 °C in an incubator (HeraCell, Heraeus, Langenselbold, Germany).
(§2) Cell viability was determined using the MTT (3-(4,5-dimethylthiazol-2-yl)-2,5-diphenyl-tetrazoliumbromide) assay. Stock solutions of the studied compounds were prepared in 100% DMSO. […] Cells were seeded in 96-well plates at a density of 5 × 10^3 cells/well and treated for 72 h with the examined compounds in the concentration range 1–100 μM (1, 10, 25, 50 and 100 μM). Following treatment, MTT (0.5 mg/mL) was added to the medium and cells were further incubated for 2 h at 37 °C. Cells were lysed with DMSO and the absorbance of the formazan solution was measured at 550 nm with a plate reader (1420 multilabel counter, Victor, Jügesheim, Germany). […] The experiment was performed in triplicate. Values are expressed as the mean ± SD of at least three independent experiments.

[2] = system: HCT-116 (colon cancer); experiment: MTT cell viability assay, HCT-116; conditions: Homo sapiens, HCT-116, 72 h, 72 h of incubation, mean ± SD
Method: as §1, §2

[3] = system: HeLa (cervical cancer); experiment: MTT cell viability assay, HeLa; conditions: Homo sapiens, 72 h; for IC50: 72 h of incubation, mean ± SD
Method: as §1, §2

[4] = Homo sapiens, MCF7, 72 h of incubation

Question: Which IC50 ([1]; 72 h of incubation) does the source give for `N.N.[Cl][Pt][Cl]` [Cisplatin, reference compound] here?
Answer: 3 ± 0.1 µM

Question: What does the source list for `Cc1cc(S(=O)(=O)Nc2nncc(-c3cccc(F)c3)n2)c(SCc2ccccc2)cc1Cl` [Compound 27, 2-Benzylthio-4-chloro-N-[5-(3-fluorophenyl)-1,2,4-triazin-3-yl]-5-methylbenzenesulfonamide]?
Answer: IC50 [1, 4]: 80 ± 2 µM; IC50 [2]: 75 ± 1 µM; IC50 [3]: 84 ± 1 µM

Question: With `COc1ccc(-c2cnnc(NS(=O)(=O)c3cc(C)c(Cl)cc3SCc3ccccc3)n2)cc1` [Compound 29, 2-Benzylthio-4-chloro-N-[5-(4-methoxyphenyl)-1,2,4-triazin-3-yl]-5-methylbenzenesulfonamide] as the molecule, how does the IC50 [1, 4] read?
Answer: 110 ± 2 µM

Question: And the IC50 [2]?
Answer: 720 ± 36 µM

Question: What about the IC50 [3] of the same molecule?
Answer: 190 ± 7 µM

Question: For `COc1cc(-c2cnnc(NS(=O)(=O)c3cc(C)c(Cl)cc3SCc3ccccc3)n2)cc(OC)c1OC` [Compound 32, 2-Benzylthio-4-chloro-5-methyl-N-[5-(3,4,5-trimethoxyphenyl)-1,2,4-triazin-3-yl]benzenesulfonamide], which IC50 [1, 4] is on record?
Answer: 87 ± 4 µM

Question: And the IC50 [2]?
Answer: 88 ± 3 µM

Question: What about the IC50 [3] of the same molecule?
Answer: 87 ± 4 µM

Question: With `Cc1cc(S(=O)(=O)Nc2nncc(-c3cccc(F)c3)n2)c(SCc2ccc(C(F)(F)F)cc2)cc1Cl` [Compound 33, 4-Chloro-N-[5-(3-fluorophenyl)-1,2,4-triazin-3-yl]-5-methyl-2-[4-(trifluoromethyl)benzylthio]benzenesulfonamide] as the molecule, how does the IC50 [1, 4] read?
Answer: 88 ± 1 µM

Question: What about the IC50 [2] of the same molecule?
Answer: 67 ± 1 µM

Question: What about the IC50 [3] of the same molecule?
Answer: 76 ± 3 µM

Question: Which results are given for `COc1ccc(-c2cnnc(NS(=O)(=O)c3cc(C)c(Cl)cc3SCc3c(C)noc3C)n2)cc1` [Compound 41, 4-Chloro-2-[(3,5-dimethylizoxazol-4-yl)methylthio]-N-[5-(4-methoxyphenyl)-1,2,4-triazin-3-yl]-5-methyl-benzenesulfonamide]?
Answer: IC50 [1, 4]: 99 ± 1 µM; IC50 [2]: 97 ± 2 µM; IC50 [3]: 85 ± 1 µM

Question: For `COc1ccc(-c2cnnc(NS(=O)(=O)c3cc(C(=O)Nc4ccccc4)c(Cl)cc3SCc3ccccc3)n2)cc1` [Compound 42, 4-Benzylthio-2-chloro-5-{N-[5-(4-methoxyphenyl)-1,2,4-triazin-3-yl]sulfamoyl}-N-phenylbenzamide], which IC50 [1, 4] is on record?
Answer: 83 ± 2 µM

Question: And the IC50 [2]?
Answer: 77 ± 2 µM

Question: And the IC50 [3]?
Answer: 82 ± 1 µM

Question: How did the IC50 [1, 4] turn out when `COc1cccc(-c2cnnc(NS(=O)(=O)c3cc(C(=O)Nc4ccccc4)c(Cl)cc3SCc3ccccc3)n2)c1` [Compound 43, 4-Benzylthio-2-chloro-5-{N-[5-(3-methoxyphenyl)-1,2,4-triazin-3-yl]sulfamoyl}-N-phenylbenzamide] was run?
Answer: 87 ± 2 µM

Question: And the IC50 [2]?
Answer: 92 ± 3 µM

Question: And the IC50 [3]?
Answer: 130 ± 10 µM

Question: `COc1ccc(-c2cnnc(NS(=O)(=O)c3cc(C(=O)Nc4ccccc4)c(Cl)cc3SCc3ccccc3)n2)cc1OC` [Compound 44, 4-Benzylthio-2-chloro-5-{N-[5-(3,4-dimethoxyphenyl)-1,2,4-triazin-3-yl]sulfamoyl}-N-phenylbenzamide] was tested. Which IC50 [1, 4] did it give?
Answer: 90 ± 5 µM

Question: And the IC50 [2]?
Answer: 160 ± 6 µM

Question: And the IC50 [3]?
Answer: 160 ± 8 µM

Question: What does the source list for `O=C(Nc1ccc(Cl)cc1)c1cc(S(=O)(=O)Nc2nncc(-c3cccc(F)c3)n2)c(SCc2ccccc2)cc1Cl` [Compound 45, 4-Benzylthio-2-chloro-N-(4-chlorophenyl)-5-{N-[5-(3-fluorophenyl)-1,2,4-triazin-3-yl]sulfamoyl}benzamide]?
Answer: IC50 [1, 4]: 90 ± 1 µM; IC50 [2]: 97 ± 2 µM; IC50 [3]: 82 ± 1 µM

Question: How did the IC50 [1, 4] turn out when `COc1cccc(-c2cnnc(NS(=O)(=O)c3cc(C(=O)Nc4ccc(Cl)cc4)c(Cl)cc3SCc3ccccc3)n2)c1` [Compound 48, 4-Benzylthio-2-chloro-N-(4-chlorophenyl)-5-{N-[5-(3-methoxyphenyl)-1,2,4-triazin-3-yl]sulfamoyl}-benzamide] was run?
Answer: 87 ± 3 µM

Question: And the IC50 [2]?
Answer: 80 ± 3 µM

Question: What about the IC50 [3] of the same molecule?
Answer: 80 ± 2 µM

Question: For `COc1ccc(-c2cnnc(NS(=O)(=O)c3cc(C(=O)Nc4ccc(Cl)cc4)c(Cl)cc3SCc3ccccc3)n2)cc1OC` [Compound 49, 4-Benzylthio-2-chloro-N-(4-chlorophenyl)-5-{N-[5-(3,4-dimethoxyphenyl)-1,2,4-triazin-3-yl]sulfamoyl}-benzamide], which IC50 [1, 4] is on record?
Answer: 81 ± 5 µM

Question: What about the IC50 [2] of the same molecule?
Answer: 110 ± 2 µM

Question: What about the IC50 [3] of the same molecule?
Answer: 120 ± 6 µM

Question: `COc1cc(-c2cnnc(NS(=O)(=O)c3cc(C(=O)Nc4ccc(Cl)cc4)c(Cl)cc3SCc3ccccc3)n2)cc(OC)c1OC` [Compound 50, 4-Benzylthio-2-chloro-N-(4-chlorophenyl)-5-{N-[5-(3,4,5-trimethoxyphenyl)-1,2,4-triazin-3-yl]sulfamoyl}-benzamide] was tested. Which IC50 [1, 4] did it give?
Answer: 120 ± 4 µM

Question: And the IC50 [2]?
Answer: 115 ± 3 µM

Question: What about the IC50 [3] of the same molecule?
Answer: 130 ± 8 µM

Question: Which results are given for `Cc1ccc(NC(=O)c2cc(S(=O)(=O)Nc3nncc(-c4cccc(F)c4)n3)c(SCc3ccccc3)cc2Cl)cc1` [Compound 51, 4-Benzylthio-2-chloro-5-{N-[5-(3-fluorophenyl)-1,2,4-triazin-3-yl]sulfamoyl}-N-(4-methylphenyl)benzamide]?
Answer: IC50 [1, 4]: 95 ± 5 µM; IC50 [2]: 190 ± 13 µM; viability at 100 µM ([3]; HeLa, 100 μM, read-out: Viability of cell line at 100 μM (HeLa)): 100%

Question: With `COc1ccc(-c2cnnc(NS(=O)(=O)c3cc(C(=O)Nc4ccc(C)cc4)c(Cl)cc3SCc3ccccc3)n2)cc1` [Compound 53, 4-Benzylthio-2-chloro-5-{N-[5-(4-methoxyphenyl)-1,2,4-triazin-3-yl]sulfamoyl}-N-(4-methylphenyl)-benzamide] as the molecule, how does the IC50 [1, 4] read?
Answer: 88 ± 2 µM

Question: And the IC50 [2]?
Answer: 76 ± 2 µM

Question: What about the IC50 [3] of the same molecule?
Answer: 74 ± 2 µM

Question: For `COc1cccc(-c2cnnc(NS(=O)(=O)c3cc(C(=O)Nc4ccc(C)cc4)c(Cl)cc3SCc3ccccc3)n2)c1` [Compound 54, 4-Benzylthio-2-chloro-5-{N-[5-(3-methoxyphenyl)-1,2,4-triazin-3-yl]sulfamoyl}-N-(4-methylphenyl)benzamide], which IC50 [1, 4] is on record?
Answer: 96 ± 5 µM

Question: And the IC50 [2]?
Answer: 84 ± 5 µM

Question: What about the IC50 [3] of the same molecule?
Answer: 82 ± 1 µM

Question: Which results are given for `COc1ccc(-c2cnnc(NS(=O)(=O)c3cc(C(=O)Nc4ccc(C)cc4)c(Cl)cc3SCc3ccccc3)n2)cc1OC` [Compound 55, 4-Benzylthio-2-chloro-5-{N-[5-(3,4-dimethoxyphenyl)-1,2,4-triazin-3-yl]sulfamoyl}-N-(4-methylphenyl)-benzamide]?
Answer: IC50 [1, 4]: 150 ± 6 µM; IC50 [2]: 150 ± 3 µM; IC50 [3]: 105 ± 4 µM

Question: With `COc1cc(-c2cnnc(NS(=O)(=O)c3cc(C(=O)Nc4ccc(C)cc4)c(Cl)cc3SCc3ccccc3)n2)cc(OC)c1OC` [Compound 56, 4-Benzylthio-2-chloro-N-(4-methylphenyl)-5-{N-[5-(3,4,5-trimethoxyphenyl)-1,2,4-triazin-3-yl]sulfamoyl}-benzamide] as the molecule, how does the IC50 [1, 4] read?
Answer: 89 ± 3 µM

Question: And the IC50 [2]?
Answer: 75 ± 2 µM

Question: What about the IC50 [3] of the same molecule?
Answer: 80 ± 2 µM

Question: How did the IC50 [1, 4] turn out when `COc1ccc(NC(=O)c2cc(S(=O)(=O)Nc3nncc(-c4ccc(OC)cc4)n3)c(SCc3ccccc3)cc2Cl)cc1` [Compound 57, 4-Benzylthio-2-chloro-N-(4-methoxyphenyl)-5-{N-[5-(4-methoxyphenyl)-1,2,4-triazin-3-yl]sulfamoyl}benzamide] was run?
Answer: 90 ± 1 µM

Question: What about the IC50 [2] of the same molecule?
Answer: 73 ± 1 µM

Question: What about the IC50 [3] of the same molecule?
Answer: 80 ± 1 µM

Question: What does the source list for `COc1ccc(NC(=O)c2cc(S(=O)(=O)Nc3nncc(-c4cccc(OC)c4)n3)c(SCc3ccccc3)cc2Cl)cc1` [Compound 58, 4-Benzylthio-2-chloro-N-(4-methoxyphenyl)-5-{N-[5-(3-methoxyphenyl)-1,2,4-triazin-3-yl]sulfamoyl}benzamide]?
Answer: IC50 [1, 4]: 92 ± 6 µM; IC50 [2]: 98 ± 2 µM; IC50 [3]: 88 ± 6 µM

Question: With `COc1ccc(NC(=O)c2cc(S(=O)(=O)Nc3nncc(-c4ccc(OC)c(OC)c4)n3)c(SCc3ccccc3)cc2Cl)cc1` [Compound 59, 4-Benzylthio-2-chloro-5-{N-[5-(3,4-dimethoxyphenyl)-1,2,4-triazin-3-yl]sulfamoyl}-N-(4-methoxyphenyl)-benzamide] as the molecule, how does the IC50 [1, 4] read?
Answer: 100 ± 5 µM

Question: And the IC50 [2]?
Answer: 140 ± 5 µM

Question: What about the IC50 [3] of the same molecule?
Answer: 150 ± 2 µM

Question: How did the IC50 [1, 4] turn out when `COc1ccc(NC(=O)c2cc(S(=O)(=O)Nc3nncc(-c4cc(OC)c(OC)c(OC)c4)n3)c(SCc3ccccc3)cc2Cl)cc1` [Compound 60, 4-Benzylthio-2-chloro-N-(4-methoxyphenyl)-5-{N-[5-(3,4,5-trimethoxyphenyl)-1,2,4-triazin-3-yl]sulfamoyl}-benzamide] was run?
Answer: 270 ± 13 µM

Question: And the IC50 [2]?
Answer: 230 ± 18 µM

Question: And the IC50 [3]?
Answer: 230 ± 5 µM
